Results reported in a melting point compilation (Tetko et al.; mined from patent text by program, amines drawn as free bases though some values may be those of a salt).

SMILES	melting point [°C]
O=[N+]([O-])c1cc(-c2ccccc2)ccc1Cl	43 to 44
O=C(CCCCCCC(=O)N1CCN(CC(=O)Nc2nc3ccccc3s2)CC1)NO	166 to 170
O=c1[nH]c2cc(-n3cnc4ccccc43)c([N+](=O)[O-])cc2[nH]c1=O	> 300
CCOc1cc(N)c(Cl)cc1C(=O)NCC1CN(CC2CCN(Cc3cccc(F)c3)CC2)CCO1 (stereo not given)	172 to 174
Nc1nc(F)cc(CF)n1	189 to 190
CN1CCc2c(Cl)ccc3c4c(n(c23)CC1)CCCC4	128 to 130
Cc1ccc(-c2nsc3[nH]c4ccc(C)cc4c(=O)c23)cc1	330
CCCCn1c(C)c(Br)c(=O)c(C(=O)Nc2ccc(Br)cc2C)c1C	190 to 192
COC(=O)C=C1NC(C)(CO)COC1=O (stereo not given)	62 to 63
CC(C)(C)Sc1ccc(CN(O)C(N)=O)s1	101 to 103
Cc1cc(SC2=C(O)CC(CCc3ccc(O)cc3)(C3CCCC3)OC2=O)c(C(C)(C)C)cc1CO (stereo not given)	199 to 201
CCCc1n[nH]cc1-c1nsc(Nc2ccccn2)n1	248 to 250
Cc1cc(C)cc(Oc2c(C(C)C)c(=O)[nH]c(=O)n2CCC2C=CCC2)c1 (stereo not given)	148 to 149
CCn1cc(-c2c(-c3ccc(F)cc3)nn3ccncc23)ccc1=O	165 to 166
O=c1oc2cccnc2n1CN1CCN(c2cccc(C(F)(F)F)c2)CC1	112 to 118
Cc1nc(N)nc(O)c1I	212
COc1cccc2c1OC(CN1CCC(NC(=O)Nc3ccccc3)CC1)CC2 (stereo not given)	163
CC1=Nc2c(C)nn(C)c2C2=NCCN12	174 to 177
COC(=O)NC(=O)c1nc(Cl)c(Cl)[nH]1	247
CCCc1nc(CSc2ccc(CCC(=O)O)cc2)c(C(=O)OCC)n1Cc1cc2c(cc1Cl)OCO2	174
O=C1NCc2ccc(-c3cccc4cc(Cc5cccc(C(F)(F)F)c5)sc34)cc21	151 to 152
CC(=O)Nc1cc(C)c(C)cc1OC(C)=O	156 to 158
Cn1c(C(F)(F)F)nc2c(OCc3ccccc3)cc(Br)cc21	141 to 142

SMILES	melting point [°C]
Cc1ccc(N2CCN(CCC3NC(=O)c4ccccc43)CC2)cc1C (stereo not given)	167 to 169
CCCc1c(-c2ccccc2)nc2n1CCc1ccccc1C2OC1CCN(C)CC1 (stereo not given)	144
C=CCOc1nc(N)nc(-c2ccccc2)c1-c1ccc(=O)n(C(C)C)n1	130 to 132
N#Cc1csc([N+](=O)[O-])c1Br	176 to 178
CN1CCC(OC(c2cccc(-c3ccn[nH]3)c2)c2nc3ccccc3s2)CC1 (stereo not given)	90
Cc1ccc(-c2ncc(O)nc2-c2ccc(C)cc2)cc1	250 to 254
Cn1nc(-c2ccccc2)cc1Cl	61 to 62
CN1c2ccccc2CC1c1ccccc1NC(=O)C(C)(C)C (stereo not given)	133 to 135
CC1CCc2c(O)ccc3c(=O)c(C(=O)O)cn1c23 (stereo not given)	> 300
COc1ccc(C(C)(O)Cc2ccncc2)cc1OC1CCCC1 (stereo not given)	99 to 101
CC(C)(C)c1ccccc1N1CCN(C(=O)C(=O)Nc2ccccn2)CC1	168 to 172
CC1CCCN(C2c3cc4nonc4cc3OC(C)(C)C2O)C1=O (stereo not given)	146 to 149
COC(=O)C1C=CCn2c(=O)[nH]c(=O)n21 (stereo not given)	210 to 213
CN1OC(COCc2ccc(Cl)cc2)CC1(Cn1ccnc1)c1ccc(Cl)cc1 (stereo not given)	97 to 100
COc1cc(N)c(Cl)cc1C(=O)NN1CCN(Cc2ccc(N(C)C)cc2)CC1	208 to 210
O=C1N(Cc2ccc(C(F)(F)F)o2)c2ccccc2C12COc1cc3c(cc12)OCCCO3 (stereo not given)	162 to 164
CC1(C2=CCC3C4CCC5CC(O)CCC5(C)C4C(O)CC23C)OCCO1 (stereo not given)	214 to 218
CN1C(=O)Cc2cc(C3=NNC(=O)C4CCC34)ccc21 (stereo not given)	256 to 259
Nc1cc(I)c(-c2cc([N+](=O)[O-])c(N)cc2I)cc1[N+](=O)[O-]	346 to 348
CC(C)(C)OC(=O)N1CCN(c2ccc(N=C(N)c3cccs3)cc2)CC1	164
Fc1ccc(CN2CC=C(c3cc4ccccc4s3)CC2)cc1	142 to 144
CCON=C(CC)C1=C(OC(=O)c2ccc(Cl)cc2)CC(C)(C)CC1=O	60 to 62
Cn1c(=O)c(-c2ccc(Cl)cc2Cl)cc2c3cc(-c4c[nH]nn4)ccc3n(C)c21	274 to 275

SMILES	melting point [°C]
COC(=O)c1sccc1NC(=O)CC#N	146
Cc1cc(C)nc(Sc2ccnc3cc(Cl)ccc23)n1	127 to 130
N#CC(C#N)=C1C=C(c2ccccc2)S(=O)(=O)C(c2cccs2)=C1	214 to 232
COc1cc(C=CC(=O)C=Cc2cc(OC)c(OC)c(OC)c2)cc(OC)c1OC	45 to 47
CNS(=O)(=O)CCc1ccc(N)cc1	101 to 105
Brc1ccc(Cn2cncn2)cc1	77 to 79
CCCCc1nc2c(N)nc3ccccc3c2n1CCCC(C)=NOC	157 to 159
CC(=O)Oc1ccc(C(=O)O)c(C)c1	136 to 138
Cc1ccc2c3c(ccc2n1)OC[C@H](CNC(=O)C1CCc2c([nH]c4ccc(F)cc24)C1)O3 (stereo not given in full)	92 to 96
CCCn1cc2c(C3C(=O)Nc4ccc(Br)cc43)nc(NCC(O)CO)nc2n1 (stereo not given)	295 to 297
CCCCN(CCCCCN(CCCC)c1ccc(C=O)cc1)c1ccc(C=O)cc1	51 to 52
CNC(=C[N+](=O)[O-])NCCN1CCC(C(=O)c2ccc(F)cc2)CC1	157 to 159
CCOCc1nc2c(N)nc3cc(O)ccc3c2n1CC(C)(C)NC(=O)NC(C)C	163 to 168
Cn1ccnc1Sc1c(Cl)cccc1Cl	113 to 115
CCOc1nn(C(=S)Oc2ccccc2)c(=O)n1C	123
CC[C@H](CO)Nc1nc(NCc2ccccc2)c2nnn(C(C)C)c2n1	115 to 118
CCCCCCCCOc1cc(OC)ccc1O	36 to 38
CCO[PH](=O)OP(=O)(CNC(C)(c1ccccc1)c1cc(C(C)(C)C)c(O)c(C(C)(C)C)c1)OCC (stereo not given)	95 to 110
COC(=O)C(C#N)=C(O)c1cc(F)c(F)c(F)c1F	71 to 73
CN1CCN(CC(=O)N2c3ccccc3C(=O)Nc3cccnc32)CC1	198 to 200
CCOC(=O)C(C)Oc1ncn(-c2ccc(Cl)cc2)n1 (stereo not given)	62 to 64
Cc1cc2c(cc1-c1c[nH]c(C=O)c1)C(C)(C)CCC2(C)C	128 to 129
CNS(=O)(=O)N1CC2(CCN(C(=O)Nc3nnc(-c4ccccc4)s3)CC2)c2ccccc21	230 to 231

Second part, the compound after the results:

melting point [°C]	SMILES
146 to 148	O=C1C(=C(O)Cc2ccccc2)SC(=S)N1c1ccccc1
180 to 182	Cc1[nH]c2cccc(/C=C/C(=O)OCc3ccccc3)c2c1Cc1cccnc1
203 to 204	CCCc1c(C(=O)NCc2ccc3cc(OCC(=O)O)ccc3c2)cnn1-c1ccc(Cl)cc1
106 to 107	CC(=O)C(Cc1cccc(Br)c1)NC(=O)c1ccc(C)cc1 (stereo not given)
144 to 146	O=C(O)Cc1cccc(Oc2ccccc2F)c1[N+](=O)[O-]
184 to 185	COC(=O)C(=Cc1ccccc1)c1ccc2nc(-c3ccccc3)oc2c1
147 to 148	CC(C)(C)c1ccc(CCCCC(O)C2CCCCC2)cc1NC(=O)CC1c2ccccc2Oc2ccccc21 (stereo not given)
205 to 207	COc1ccc(-n2nc(Sc3ccc(-c4ccccc4)cc3)c(C)c(C#N)c2=O)cc1
208	O=CNc1ccnc(C(=O)Nc2ccc(Oc3ccccc3)cc2)c1O
207 to 208	Cc1ccc(S(=O)(=O)n2c(Br)cc(-c3ccc(F)cc3)c2-c2ccc(S(C)(=O)=O)cc2)cc1
262 to 264	Oc1ccc(Nc2ncc3ncc(-c4ccccc4O)cc3n2)cc1
180 to 181	Oc1ccc(-c2noc(C3(CSc4ccccc4)CC3)c2-c2ccccc2)cc1
134 to 137	Nc1nc(NCC(c2ccccc2)c2ccccc2)c2ncn(C3OC(CO)C(O)C3O)c2n1 (stereo not given)
134 to 135	COc1cc(CCCC2OC(=O)NC2=O)ccc1OCc1coc(-c2ccccc2)n1 (stereo not given)
119 to 120	COc1ccc(-c2cc(=O)n(Cc3ccc(Cl)cc3Cl)nc2-c2ccc(OC)c(OC)c2)cc1
194 to 196	O=CNCC(=O)c1cccc(Nc2ccc3ccccc3n2)c1

melting point [°C]	SMILES
103	CC#Cc1ccc(-c2ccc(-c3ccc(CCCCC)cc3)c(F)c2F)cc1
74 to 75	Nc1ccccc1C(=O)NCCCCN1CCC(OC(c2ccccc2)c2ccccc2)CC1
100 to 101	CC1(O)CC(=O)OC(CCCc2ccc(OCc3ccccc3)cc2)C1Br (stereo not given)
86 to 88	CCCCCCCCCCOc1cc(OCCCCCCc2cccc(O)c2O)cc(C(=O)O)c1
214 to 217	NS(=O)(=O)c1cc(C(=O)O)cc(N2CCCC2)c1Oc1ccccc1
103 to 105	CCOC(=O)c1ccccc1CN1C(=O)C(CCOc2ccc(CCNC(=O)OC(C)(C)C)cc2)Oc2ccccc21 (stereo not given)
181 to 183	CC(=O)NCC1OC(=O)N2c3ccc(-c4ccccc4)cc3CC12 (stereo not given)
181 to 182	O=C(NCc1ccccc1O)[C@@H]1CCCN(c2cccc3c2C(=O)N(Cc2ccncc2)C3=O)C1
143 to 144	COC(=O)C(=O)c1ccc(OCCCNC(=O)c2ccc3ccccc3c2)cc1
186 to 187	CNc1nc(-c2ccccc2)c(-c2nc3ccccc3c(=O)n2-c2cccc(C)c2)s1
97 to 98	O=C(O)c1ccc(CCCc2ccccc2CCc2ccccc2)cc1
158 to 160	COc1cc(CN2CCN(C(=O)c3ccc4c(c3)C(=O)c3ccccc3C4=O)CC2)cc(OC)c1OC
99.5 to 100	COC(=O)CC[C@@H](CF)NC(=O)c1ccccc1
265 to 267	NC(=O)c1nn(-c2ccc3c(c2)OCO3)c2c1CCc1ccc(NC(=O)c3cccnc3N)cc1-2
218 to 220	NC(=O)c1ccc(-c2ccc(-c3ccn(C(CC(=O)O)C(=O)NC(CO)Cc4ccccc4)c3)cc2)cc1 (stereo not given)
